Where a SMILES comes first, the peptide text is derived from it. Bridges are numbered along the chain shown (N, C = ends). [ ]: non-standard residue; d: D form. The star is where a group is joined. X1 = CC1(C)C(/C=C/C=C/C=C/C=C2/N(CCC(=O)*)c3ccc4ccccc4c3C2(C)C)=[N+](CCC(=O)[O-])c2ccc3ccccc3c21
Columns and labels:
[1] = test system: Raw 264.7 macrophage cells; assay: In-vitro anti-inflammatory effect: LPS-induced cytokines by cytokine bead array; type: cell-based; settings: combined with near-infrared (780 nm) laser irradiation
Experimental: MTX alone and controls. Raw 264.7 macrophage cells were treated with methotrexate (MTX), LS301-MTX, LS301 alone, or LS301 combined with near-infrared (780 nm) laser irradiation. Levels of inflammation-associated (LPS-induced) cytokines, including IL-6 and IL-10, were measured by cytokine bead array.

[2] = test system: C57BL/6J mice with serum transfer arthritis; settings: mouse, in vivo
Experimental: Animals were shaved. Excess hair was removed using commercially available hair removal cream. Mice were anesthetized with isoflurane for injection and imaging procedures. LS301 stock (or LS301-methotrexate or LS301-methylprednisolone derivative stock) in dimethyl sulfoxide solution was diluted in phosphate-buffered saline to a final concentration of 60 μM and injected via tail vein into mice. In-vivo near-infrared fluorescence using 785 nm excitation and 820 nm emission filters was assessed pre-injection, post-injection, and/or at indicated time points post-injection with a Pearl Small Animal Imaging System (LICOR Biotechnology, Lincoln, Nebr.). Regions of interest (ROIs) for fluorescence quantitation were drawn and analyzed using the Pearl Small Animal Imaging System software.
C57BL/6J mice with serum arthritis (days 5-6 post serum transfer) (left) or control C57BL/6J mice (right) were injected intravenously with 6 nmol LS301. […] Near-infrared fluorescence images were taken on the Pearl animal imaging system with λ=820 nm. […] ROIs were drawn around each organ/limb of interest and quantitated using the Pearl animal imaging system software.
C57BL/6 mice with induced arthritis (K/Bxn serum transfer, days 5-6 post serum transfer) were injected subcutaneously (flank) with 6 nmol LS301. […] Near-infrared fluorescence images were taken on Pearl Imaging System with λ=800 nm.

[3] = test system: K/BxN (F1) mice with spontaneous arthritis; assay: Whole-body near-infrared fluorescence imaging in K/BxN spontaneous arthritis mice
Experimental: The K/BxN mice with spontaneous arthritis (F1) were maintained in the laboratory. To establish serum transfer arthritis (STA), male 6-8 weeks old C57BL/6J mice were injected intraperitoneally with 150-175 μL of serum derived from F1 mice (8-9 weeks old). Day 0 denoted induction of serum transfer/disease. Clinical manifestation of arthritis in each paw was assessed daily on a scale of 0-3 with 0=no swelling or erythema, 1=slight swelling or erythema, 2=moderate erythema and swelling in multiple digits or entire paw, and 3=pronounced erythema and swelling of an entire paw, with a maximum score of 12 per mouse. The ankle thickness of two hind paws was measured using calipers. Animals were monitored for distress during arthritis induction, including their ability to move around the cage and access food/water.
In the K/BxN (F1) mice with spontaneous arthritis, inflammation occurs progressively in the paws, ankle, and knee joints leading to measurable local erythema and swelling. F1 mice with severe arthritis (9-10 weeks old) were injected intravenously with LS301 and imaged 18 h post-injection for near-infrared fluorescence using the Pearl Small Animal Imaging System.
Arthritic or control (non-diseased) mice were injected intravenously with 6 nmol LS301. […] Images shown represented at least two independent experiments and were taken at 18 h post-injection with mice in dorsal orientation.
Mice were injected intravenously with 6 nmol LS301. […] Images shown were taken at 18 h post-injection with mice in dorsal orientation. (A) Early stage RA (3-4 week old K/Bxn mice). (B) Intermediate stage RA ([…] K/Bxn mice). (C) Late-stage RA (9-10 week old K/Bxn mice). (D) Normal (control) C57BL/6J mice. (E) K/Bxn mice (3-4 weeks old) were injected with cypate dye (control) instead of LS301.
K/BxN mice (9-10 wk. old) were injected intravenously with 6 nmol LS301.

pANXA2 = pANXA2 (Homo sapiens, UniProt P07355); settings: previously found; cited from earlier work
Chain of pANXA2 (P07355 whole entry): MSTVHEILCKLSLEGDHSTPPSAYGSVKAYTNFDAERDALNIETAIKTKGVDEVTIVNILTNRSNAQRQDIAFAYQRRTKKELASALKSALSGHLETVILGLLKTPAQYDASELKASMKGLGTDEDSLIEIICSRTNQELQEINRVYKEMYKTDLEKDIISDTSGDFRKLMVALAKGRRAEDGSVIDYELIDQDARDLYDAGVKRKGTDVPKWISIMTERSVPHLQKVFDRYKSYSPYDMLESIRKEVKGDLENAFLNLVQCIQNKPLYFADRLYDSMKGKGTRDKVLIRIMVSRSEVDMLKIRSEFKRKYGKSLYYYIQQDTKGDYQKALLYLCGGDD

[4] = test system: C57BL/6 mice with induced arthritis (K/BxN serum transfer); assay: Serum transfer arthritis: clinical paw scores and ankle thickness after treatment; type: in vivo, mouse
Experimental: To establish serum transfer arthritis (STA), male 6-8 weeks old C57BL/6J mice were injected intraperitoneally with 150-175 μL of serum derived from F1 mice (8-9 weeks old). Day 0 denoted induction of serum transfer/disease. Clinical manifestation of arthritis in each paw was assessed daily on a scale of 0-3 with 0=no swelling or erythema, 1=slight swelling or erythema, 2=moderate erythema and swelling in multiple digits or entire paw, and 3=pronounced erythema and swelling of an entire paw, with a maximum score of 12 per mouse. The ankle thickness of two hind paws was measured using calipers. Animals were monitored for distress during arthritis induction, including their ability to move around the cage and access food/water. Experiments were blinded, where the technician responsible for clinical assessment of paw score and ankle measurements was blinded to treatment groups. […] Clinical paw scores and ankle measurements were obtained daily. […] Mice received intraperitoneal DEX (10 mg/kg/dose) daily over 6 days. Clinical paw scores and ankle measurements were obtained daily. […] C57BL/6 mice with induced arthritis (K/Bxn serum transfer) were imaged with 6 nmol intravenous LS301 at day 4 post-disease induction. […] Individual limbs of the mice were scored for paw edema and measured for ankle thickness by calipers.

CC1(C)C(/C=C/C=C/C=C/C=C2/N(CCC(=O)N[C@@H]3CSSC[C@@H](C(=O)N[C@@H](CCCCN)C(=O)O)NC(=O)[C@@H]4CCCN4C(=O)[C@H](CO)NC(=O)[C@H](CC(=O)O)NC(=O)[C@H](CCCNC(=N)N)NC(=O)CNC3=O)c3ccc4ccccc4c3C2(C)C)=[N+](CCC(=O)[O-])c2ccc3ccccc3c21 [LS301, cypate-cyclic (DCys-Gly-Arg-Asp-Ser-Pro-Cys)-Lys-OH] (X1-[dC]GRDSPCK-OH; disulfide 1-7)
inflammatory state of macrophages (LPS-induced cytokines incl. IL-6, IL-10) [1]: suppress the inflammatory state of macrophages
kidney signal, arthritic mice vs controls [2]: possible nonsignificant trend toward increased kidney signal in arthritic mice when compared to controls
clearance from the body ([3]; mouse, in vivo, iv): 2.5 days
time point of contrast post-injection ([3]; mouse, in vivo, iv): ~18 h
affinity for pANXA2 (pANXA2): high affinity
effect on disease progression ([4]; imaging dose (6 nmol), LS301 alone): did not significantly affect disease progression

CC1(C)C(/C=C/C=C/C=C/C=C2/N(CCC(=O)O)c3ccc4ccccc4c3C2(C)C)=[N+](CCC(=O)[O-])c2ccc3ccccc3c21 [cypate, reference compound]
accumulation in extremities / regions of arthritic joint disease ([3]; K/BxN F1 arthritic mice, i.v., 18 h): No accumulation was found in extremities

CN(Cc1cnc2nc(N)nc(N)c2n1)c1ccc(C(=O)N[C@@H](CCC(=O)O)C(=O)O)cc1 [methotrexate, reference compound]
clinical scores ([4]; three doses i.p. 2 mg/kg/dose over seven days, day 23 post-treatment initiation): clinical scores of mice had significantly decreased
